Measurements taken from patent US12427151B2, “Compositions and method of treating cancer” (The Regents of the University of California, priority 2017, dated 2025).
Values after ≈ are worked out from the molar mass of the structure shown.

How the values were obtained:
[1] = system: GAS; test: Time course killing of GAS; format: cell-based, group A Streptococcus; details: THB; 6-HAP 25 μg/mL, mitomycin C 5 μg/mL, LL-37 10 μM
Experimental: (a) Time course killing of GAS in THB containing 6-HAP (25 μg/mL), mitomycin C (5 μg/mL), or LL-37 (10 μM). At each indicated time point, live GAS in the media was measured by counting CFU on an agar plate. The data represent mean±SE of four individual experiments. (b) Membrane permeability of GAS incubated in THB containing 6-HAP (25 μg/mL), mitomycin C (5 μg/mL) and LL-37 (10 μM) for 1 hr. The bacteria with compromised plasma membranes (Red) can be distinguished from those with intact membranes (Green). (c) BrdU incorporation into nascent DNA of GAS after incubation with 6-HAP (25 μg/mL) or mitomycin C (5 μg/mL) in THB containing BrdU (10 μM) for 30 or 60 min. (d) BrdU incorporation into nascent DNA of S. epidermidis ATCC12228 after incubation with 6-HAP (25 μg/mL) or mitomycin C (5 μg/mL) in THB containing BrdU (10 μM) for 60 min. The data represent mean±SE of five individual experiments (*P<0.05 and **P<0.01 by Student's t-test vs vehicle control). (e-f) Capacity of 6-HAP to block in vitro DNA extension by Klenow fragment polymerase. Extension reaction was carried out with IRDye800-labeled 18-nt primer (SEQ ID NO:57) and 25-nt template which required adenosine (X=T) or cytidine (X=G) at the initial base for extension (SEQ ID NO:58) (e). Extension reaction was analyzed on a 20% acrylamide gel by electrophoresis (f). […] GAS survival was measured by counting CFU. […]

[2] = system: GAS NZ131; test: MBC determination; format: cell-based, group A Streptococcus; details: Streptococcus, 3-log reduction of viable bacteria after 24 hour incubation at 37° C. in half strength MHB in PBS
Experimental: To determine MBC, bacteria were cultured in TSB (Staphylococcus), THB (Streptococcus) or Nutrient broth (P. aeruginosa and E. coli) by reaching exponential phase (OD600=0.5-0.8). […] After incubation, the number of viable bacteria was measured by counting CFU after spreading 10-fold serial dilutions of bacteria on suitable agar plates. MBC was determined as a 3-log reduction (99.9%) of viable bacteria after 24 hour incubation.
Antimicrobial activity of 6-HAP in vitro. To examine the specificity of 6-HAP for various bacteria, minimal bactericidal concentrations (MBCs) were determined according to dose-dependent killing curves at 24 hrs of incubation in vitro (Table 1). 6-HAP killed or suppressed growth of several major skin pathogens including GAS (NZ131), group B Streptococcus (GBS) (DK23), methicillin-sensitive S. aureus (ATCC35556), methicillin-resistant S. aureus (MRSA) strains (USA300 and Sanger252), Pseudomonas aeruginosa (P. aeruginosa) (ATCC14213) in vitro. […] S. epidermidis (ATCC12228) was also resistant to 6-HAP.

## ONc1ncnc2nc[nH]c12 [6-HAP, 6-N-hydroxyaminopurine]
[1]
  kinetics of killing, growth of GAS over time: at a rate similar to mitomycin C but slower than LL37
[2]
  MBC: 0.156 µg/mL (≈ 1.03 µM)
